Patent publication US20130197043A1, “USE OF THE FETAL REPROGRAMMING OF A PPAR AGONIST” (SNU R&DB FOUNDATION, priority 2010, published 2013)

Key:
[1] = system: mice subjected to fetal reprogramming; test: Treadmill endurance test of mice subjected to fetal reprogramming; assay type: in vivo
Protocol: Before the experiment, mice were exercised for 5 minutes at a speed of 7 meters/min for two days so as to be adapted to exercising equipment. On day 3, the main experiment was conducted. As for the method for experiment, the mice were made to run at a speed of 10 meter/min for 60 minutes, and after that, the speed was increased at 1 meter/min once every 15 minutes until the maximum speed reaches 15 meters/min. As for the male mice, the running time was increased by 2.9 fold ([…], P<0.0001, n=6) and the running distance was increased by 3.0 fold (9927±1168 versus 3303±394 m, P<0.0001) in the PPAR δ agonist (CMDD1111)-administered mouse group than the control mouse group.
The Experiment using pregnant C57BL/6 mice was conducted in order to verify an endurance enhancement effect by fetal reprogramming of CMDD1226. […]
The experiment for verifying the fetal reprogramming effect of GW501516 and determining the optimum administration period thereof was conducted. The experiment method was shown in FIG. 1, and the experiment was conducted with respect to three kinds of administration periods (gestation period, lactation period, and both of gestation and lactation periods). As the experiment result, the group administered with PPAR δ agonist only during the gestation period had 2.6-fold and 3.2-fold increases in the running time and the running distance, respectively, and the group administered with PPAR δ agonist only during the lactation period had 2.4-fold and 3.0-fold increases in the running time and the running distance, respectively, as compared with the control group. The group administered with PPAR δ agonist during both the gestation and lactation periods had the most obvious increase in endurance, and had 5.1-fold and 6.6-fold increases as compared with the control group (FIG. 22).
The animal test was conducted in order to verify the muscle endurance enhancement and muscular function improvement effects of the material according to the present invention. […] […] The test using a treadmill was conducted in order to confirm the effect of this muscular fiber change on muscle endurance enhancement and muscular function improvement.

hPPARg = molecular target: T1, hPPARg (Homo sapiens, UniProt P37231); test: Transfection assay in CV-1 cells, hPPARg; assay type: cell-based; conditions: luciferase reporter
T1 construct: expressed in transfected cells; host or cells: CV-1 cells
T1 sequence (P37231 1-505): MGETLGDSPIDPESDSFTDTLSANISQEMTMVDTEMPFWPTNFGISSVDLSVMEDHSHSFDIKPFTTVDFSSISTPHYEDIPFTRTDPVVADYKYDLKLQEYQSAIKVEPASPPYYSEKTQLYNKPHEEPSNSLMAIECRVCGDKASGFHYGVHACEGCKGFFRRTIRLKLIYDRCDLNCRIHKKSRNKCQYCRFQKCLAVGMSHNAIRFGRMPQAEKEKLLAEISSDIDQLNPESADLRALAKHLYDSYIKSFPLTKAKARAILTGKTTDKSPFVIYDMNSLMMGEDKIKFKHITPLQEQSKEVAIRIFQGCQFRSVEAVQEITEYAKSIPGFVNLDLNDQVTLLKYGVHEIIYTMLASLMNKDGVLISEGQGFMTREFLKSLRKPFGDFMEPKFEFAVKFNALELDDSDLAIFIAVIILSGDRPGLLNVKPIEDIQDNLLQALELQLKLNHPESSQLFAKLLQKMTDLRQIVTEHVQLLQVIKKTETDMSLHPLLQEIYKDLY
Protocol: (§1) This assay was conducted by using CV-1 cells. The cells were cultured on a 96-well plate with a DMEM medium containing 10% FBS, DBS (delipidated), and 1% penicillin/streptomycin in 37° C. of an incubator 5% of carbon dioxide. Test was conducted in four stages of cell inoculation, transfection, treatment with the developed material, and result confirmation. The CV-1 cells were inoculated on the 96-well plate at a cell density at 5,000 cells/well, and after 24 hours, transfection was performed. PPARs plasmid DNA, reporter DNA, and β-galactosidase DNA were mixed with a transfection reagent, and then used to treat the cells. The developed material was dissolved in dimethylsulfoxide (DMSO), and then was used to treat the cells by using media at various concentrations. After 24 hours of culturing in an incubator, the cells were lysed with a lysis buffer and luciferase activity and β-galactosidase activity were measured using a luminometer and a microplate reader. The measured luciferase value was calibrated with the β-galactosidase value, and this value was depicted on a graph and EC50 was determined.

hPPARa = molecular target: T2, hPPARa (Homo sapiens, UniProt Q07869); test: Transfection assay in CV-1 cells, hPPARa; assay type: cell-based; conditions: luciferase reporter
T2 construct: expressed in transfected cells; host or cells: CV-1 cells
T2 sequence (Q07869 1-468): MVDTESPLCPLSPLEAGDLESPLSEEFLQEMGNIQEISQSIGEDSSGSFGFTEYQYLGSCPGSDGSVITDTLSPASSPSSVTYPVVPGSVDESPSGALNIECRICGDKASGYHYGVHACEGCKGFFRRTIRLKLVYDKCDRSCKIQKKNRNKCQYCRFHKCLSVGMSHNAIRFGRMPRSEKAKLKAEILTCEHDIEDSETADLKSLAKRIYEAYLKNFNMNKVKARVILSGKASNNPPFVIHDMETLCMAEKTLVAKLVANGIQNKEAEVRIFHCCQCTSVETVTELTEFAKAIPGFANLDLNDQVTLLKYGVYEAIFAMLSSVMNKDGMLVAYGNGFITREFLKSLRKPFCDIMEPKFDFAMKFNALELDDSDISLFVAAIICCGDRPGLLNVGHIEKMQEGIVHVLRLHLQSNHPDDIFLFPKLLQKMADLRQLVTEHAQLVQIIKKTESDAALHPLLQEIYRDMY
Protocol: as §1

hPPAR δ = molecular target: T3, hPPAR δ (Homo sapiens, UniProt Q03181); test: Transfection assay in CV-1 cells, hPPAR δ; assay type: cell-based; conditions: luciferase reporter
T3 construct: expressed in transfected cells; host or cells: CV-1 cells
T3 sequence (Q03181 1-441): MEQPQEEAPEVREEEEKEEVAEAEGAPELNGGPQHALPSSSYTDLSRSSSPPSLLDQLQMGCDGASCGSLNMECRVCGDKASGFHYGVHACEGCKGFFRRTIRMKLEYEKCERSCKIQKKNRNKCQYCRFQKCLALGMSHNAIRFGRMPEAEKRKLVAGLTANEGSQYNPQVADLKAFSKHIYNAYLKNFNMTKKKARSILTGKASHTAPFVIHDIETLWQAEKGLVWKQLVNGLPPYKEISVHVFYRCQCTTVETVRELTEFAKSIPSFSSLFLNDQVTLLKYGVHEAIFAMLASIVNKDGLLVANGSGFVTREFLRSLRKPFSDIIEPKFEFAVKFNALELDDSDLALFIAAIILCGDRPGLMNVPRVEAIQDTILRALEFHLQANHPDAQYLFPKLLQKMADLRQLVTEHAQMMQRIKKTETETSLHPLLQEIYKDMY
Protocol: as §1

[2] = system: slow muscle fibers and endurance; conditions: cited from earlier work
HDL in serum = test: High-density lipoprotein cholesterol (HDL) in serum; assay type: in vivo; conditions: mice fed 10% fat feedstuff over 6 weeks
Excerpt: High-density lipoprotein cholesterol (HDL) has been known to play an important role in treating lipid metabolic disorders such as arteriosclerosis and hyperlipidemia while lowering the cholesterol level of an epidermal cell and mitigating an inflammatory reaction. Serum was separated from the mice fed over a 6-week period of feedstuff containing 10% fat in order to confirm the high-density cholesterol increase effect of Compounds 5 and 9, which were the developed materials of the present invention.

[3] = C57BL/6, maternal 10 mg/kg/day gestation and lactation, 7-week old
[4] = administered during both gestation and lactation periods
[5] = administered only during the gestation period
[6] = administered only during the lactation period

| SMILES | EC50 hPPARg (hPPARg) | EC50 hPPARa (hPPARa) | EC50 (hPPAR δ) [nM] | further results |
| --- | --- | --- | --- | --- |
| Cc1cc([Se]C(Cc2ccccc2)c2sc(-c3ccc(C(F)(F)F)cc3)nc2C)ccc1OCC(=O)O (stereo not drawn) [CMDD1226] | – | – | – | increase in the running distance versus control [1, 3]: 2.0 fold; increase in the running time versus control [1, 3]: 1.9 fold |
| Cc1cc(SCc2sc(-c3ccc(C(F)(F)F)cc3)nc2C)ccc1OCC(=O)O [GW501516, reference compound] | – | – | – | improvement in slow muscle fibers and endurance ([2]; administration alone to an adult): did not show improvement; slow muscle fibers and endurance ([2]; simultaneous combination of exercise and administration): generated slow muscle fibers and enhanced endurance; HDL increase in serum (HDL in serum): 29%; increase in the running distance versus control [1, 4]: 6.6 fold; increase in the running time versus control [1, 4]: 5.1 fold; increase in the running distance versus control [1, 5]: 3.2 fold; increase in the running time versus control [1, 5]: 2.6 fold; increase in the running distance versus control [1, 6]: 3.0 fold; increase in the running time versus control [1, 6]: 2.4 fold |
| Cc1cc(SC(Cc2ccc(-c3cc(F)c(F)c(F)c3)cc2)c2sc(-c3ccc(C(F)(F)F)cc3)nc2C)ccc1OCC(=O)O (stereo not drawn) [Compound 13] | ia | ia | 8.8 | – |
| Cc1cc(SC(Cc2c(F)cccc2Cl)c2sc(-c3ccc(C(F)(F)F)cc3)nc2C)ccc1OCC(=O)O (stereo not drawn) [CMDD1112] | – | – | – | endurance enhancement effect ([1]; 1 mg/kg/day): not exhibited; endurance enhancement effect ([1]; 2 mg/kg/day): not exhibited; running distance enhancement ([1]; 5 mg/kg/day): 1.5 fold; running time enhancement ([1]; 5 mg/kg/day): 1.4 fold |
| Cc1cc(SC(Cc2ccc(-c3ccc(C(F)(F)F)cc3)cc2)c2sc(-c3ccc(C(F)(F)F)cc3)nc2C)ccc1OCC(=O)O (stereo not drawn) [Compound 17] | ia | ia | 6.4 | – |
| Cc1cc(SC(Cc2ccc(-c3ccc(C(F)(F)F)cc3)nc2)c2sc(-c3ccc(C(F)(F)F)cc3)nc2C)ccc1OCC(=O)O (stereo not drawn) [Compound 21] | ia | ia | 10.6 | – |

Further lines, with some results ahead:

| EC50 hPPARg (hPPARg) | EC50 hPPARa (hPPARa) | EC50 (hPPAR δ) [nM] | SMILES | further results |
| --- | --- | --- | --- | --- |
| ia | ia | 4.6 | CCOC(=O)COc1ccc(SC(Cc2ccc(-c3ccc(F)c(Cl)c3)cc2)c2sc(-c3ccc(C(F)(F)F)cc3)nc2C)cc1C (stereo not drawn) [Compound 28] | – |
| ia | ia | 6.1 | Cc1cc(SC(Cc2ccc(-c3cccc(C(F)(F)F)c3)cc2)c2sc(-c3ccc(C(F)(F)F)cc3)nc2C)ccc1OCC(=O)O (stereo not drawn) [Compound 25] | – |
| ia | ia | 41.4 | Cc1cc(SC(Cc2cc(-c3ccc(F)cc3)no2)c2sc(-c3ccc(C(F)(F)F)cc3)nc2C)ccc1OCC(=O)O (stereo not drawn) [Compound 33] | – |
